# Results taken from patent US10770169B2, “Method of providing a treatment to a subject based on a dynamic pathway map” (THE REGENTS OF THE UNIVERSITY OF CALIFORNIA, priority 2010, dated 2020).
# “Also recorded” adds a separate entry of the source.
# Key:
# [1] = test system: panel of 55 breast cancer cell lines; experiment: Cell growth inhibition assay (Cell Titer Glo, 72 h, 9 doses; GI50, TGI, LC50); assay type: cell-based, human; conditions: value is the negative log10 of mol/L
# [2] = test system: luminal, basal, claudin-low and ERBB2AMP breast cancer cell lines; experiment: Associations of clinically relevant subtypes and response (non-parametric ANOVA or t-test on GI50 ranks); assay type: cell-based, human; conditions: for Subtype specificity: Table 6, most sensitive subtype, FDR p<0.20; for subtype-specific response (sensitivity by transcriptional subtype): GI50 across subtypes
# From the text: A central premise of this study is that associations between responses and molecular subtypes observed in preclinical cell line analyses will be recapitulated in the clinic in instances where the predictive molecular features in the cell lines are mirrored in human tumors. We established response-subtype associations by using non-parametric ANOVAs to compare […] values across transcriptional and genomics subtypes.
# Differences between GI50s of the groups were compared with a non-parametric ANOVA or t-test, as appropriate, on the ranks. We combined the p-values for the three sets of tests and used false discovery rate (FDR) to correct for multiple testing. For the three-sample test, we performed a post-hoc analysis on the compounds with a significant class effect by comparing each group to all others to determine which group was most sensitive. The p-values for the post-hoc test were FDR-corrected together. In all cases, FDR p<0.20 was deemed significant. […] Analyses were performed in R.
# [3] = AU565 cell line, censored GI50 values
# [4] = BT474 cell line, censored GI50 values
# [5] = BT483 cell line, censored GI50 values
# [6] = CAMA1 cell line, censored GI50 values
# [7] = HCC38 cell line, censored GI50 values
# [8] = HCC1395 cell line, censored GI50 values
# [9] = HCC1419 cell line, censored GI50 values
# [10] = HCC1500 cell line, censored GI50 values
# [11] = HCC1806 cell line, censored GI50 values
# [12] = HCC1937 cell line, censored GI50 values
# [13] = HCC1954 cell line, censored GI50 values
# [14] = HCC2185 cell line, censored GI50 values
# [15] = SKBR3 cell line, censored GI50 values
# [16] = SUM149PT cell line, censored GI50 values
# [17] = SUM159PT cell line, censored GI50 values
# [18] = SUM1315MO2 cell line, censored GI50 values
# [19] = HCC1187 cell line, censored GI50 values
molecule,measurement,setting,value
COc1cc2ncnc(Nc3cccc(Cl)c3)c2cc1OC [AG1478],GI50,"[1]; 600MPE cell line, censored GI50 values",3.99
same,GI50,[1]; [3],4.57
same,GI50,[1]; [4],6.17
same,GI50,[1]; [5],5.64
same,GI50,"[1]; BT549 cell line, censored GI50 values",4.41
same,GI50,[1]; [6],4.46
same,GI50,[1]; [7],4.03
same,GI50,"[1]; HCC202 cell line, censored GI50 values",5.75
same,GI50,[1]; [8],4.57
same,GI50,[1]; [9],5.92
same,GI50,[1]; [10],4.58
same,GI50,[1]; [11],4.07
same,GI50,[1]; [12],4.88
same,GI50,[1]; [13],5.64
same,GI50,[1]; [14],4.33
same,GI50,"[1]; MDAMB134VI cell line, censored GI50 values",4.00
same,GI50,"[1]; MDAMB157 cell line, censored GI50 values",4.47
same,GI50,"[1]; MDAMB175VII cell line, censored GI50 values",6.19
same,GI50,"[1]; MDAMB361 cell line, censored GI50 values",4.71
same,GI50,"[1]; MDAMB436 cell line, censored GI50 values",3.99
same,GI50,"[1]; MDAMB468 cell line, censored GI50 values",4.02
same,GI50,[1]; [15],4.92
same,GI50,[1]; [16],5.74
same,GI50,[1]; [17],4.77
same,GI50,[1]; [18],5.60
same,GI50,"[1]; T47D cell line, censored GI50 values",4.74
same,GI50,"[1]; UACC893 cell line, censored GI50 values",5.65
same,GI50,[1]; cell line 600MPE,3.99
same,GI50,[1]; cell line AU565,4.57
same,GI50,[1]; cell line BT474,6.17
same,GI50,[1]; cell line BT483,5.64
same,GI50,[1]; cell line BT549,4.41
same,GI50,[1]; cell line CAMA1,4.46
same,GI50,[1]; cell line HCC38,4.03
same,GI50,[1]; cell line HCC70,3.94
same,GI50,[1]; cell line HCC202,5.75
same,GI50,[1]; cell line HCC1143,3.78
same,GI50,[1]; cell line HCC1187,3.78
same,GI50,[1]; cell line HCC1395,4.57
same,GI50,[1]; cell line HCC1419,5.92
same,GI50,[1]; cell line HCC1428,3.78
same,GI50,[1]; cell line HCC1500,4.58
same,GI50,[1]; cell line HCC1806,4.07
same,GI50,[1]; cell line HCC1937,4.88
same,GI50,[1]; cell line HCC1954,5.64
same,GI50,[1]; cell line HCC2185,4.33
same,GI50,[1]; cell line LY2,3.78
same,GI50,[1]; cell line MDAMB134V,4.00
same,GI50,[1]; cell line MDAMB157,4.47
same,GI50,[1]; cell line MDAMB175V,6.19
same,GI50,[1]; cell line MDAMB361,4.71
same,GI50,[1]; cell line MDAMB415,3.78
same,GI50,[1]; cell line MDAMB436,3.99
same,GI50,[1]; cell line MDAMB453,3.78
same,GI50,[1]; cell line MDAMB468,4.02
same,GI50,[1]; cell line SKBR3,4.92
same,GI50,[1]; cell line SUM52PE,3.78
same,GI50,[1]; cell line SUM149PT,5.74
same,GI50,[1]; cell line SUM159PT,4.77
same,GI50,[1]; cell line SUM185PE,3.78
same,GI50,[1]; cell line SUM1315MO,5.60
same,GI50,[1]; cell line T47D,4.74
same,GI50,[1]; cell line UACC893,5.65
same,GI50,[1]; cell line ZR75B,3.78
same,GI50,[1]; cell line ZR751,3.78
same,association of response with ERBB2 amplification,[2],positively associated with ERBB2 amplification
same,Subtype specificity,[2],ERBB2AMP
N.N.[Cl][Pt][Cl] [Cisplatin],subtype-specific response (sensitivity by transcriptional subtype),[2],preferential activity in basal and/or claudin-low cell lines; also recorded: basal cell lines are preferentially sensitive; also recorded: Basal breast cancer cell lines preferentially respond
same,Subtype specificity,[2],Basal
C[C@@H](Oc1cc(-n2cnc3ccc(CN4CCN(C)CC4)cc32)sc1C(N)=O)c1ccccc1C(F)(F)F [GSK461364],subtype-specific response (sensitivity by transcriptional subtype),[2],more active against basal and claudin-low cell lines
same,Subtype specificity,[2],Basal + Claudin-low
O=C1NC(=O)/C(=C/c2ccc3nccc(-c4ccncc4)c3c2)S1 [GSK1059615],Subtype specificity,[2],Luminal/ERBB2AMP
COc1ncc(-c2ccc3nccc(-c4ccnnc4)c3c2)cc1NS(=O)(=O)c1ccc(F)cc1F [GSK2126458],Subtype specificity,[2],Luminal/ERBB2AMP
O=C(CCCCCCC(=O)Nc1ccccc1)NO [Vorinostat],Subtype specificity,[2],Luminal
ICRF-193,GI50,[1]; [3],6.14
same,GI50,[1]; [7],6.54
same,GI50,[1]; [19],6.05
same,GI50,[1]; [10],4.66
same,GI50,[1]; [13],4.82
same,GI50,[1]; [14],5.69
same,GI50,[1]; [15],5.22
same,GI50,[1]; [16],4.75
same,GI50,[1]; [17],6.38
same,GI50,[1]; [18],6.21
same,GI50,"[1]; UACC812 cell line, censored GI50 values",4.66
same,GI50,"[1]; ZR75B cell line, censored GI50 values",6.60
same,GI50,"[1]; ZR751 cell line, censored GI50 values",6.07
same,GI50,[1]; cell line AU565,6.14
same,GI50,[1]; cell line BT20,4.38
same,GI50,[1]; cell line BT474,4.30
same,GI50,[1]; cell line CAMA1,4.30
same,GI50,[1]; cell line HCC38,6.54
same,GI50,[1]; cell line HCC1143,4.30
same,GI50,[1]; cell line HCC1187,6.05
same,GI50,[1]; cell line HCC1428,4.38
same,GI50,[1]; cell line HCC1500,4.66
same,GI50,[1]; cell line HCC1806,4.30
same,GI50,[1]; cell line HCC1937,4.30
same,GI50,[1]; cell line HCC1954,4.82
same,GI50,[1]; cell line HCC2185,5.69
same,GI50,[1]; cell line MDAMB436,4.30
same,GI50,[1]; cell line MDAMB453,4.45
same,GI50,[1]; cell line SKBR3,5.22
same,GI50,[1]; cell line SUM149PT,4.75
same,GI50,[1]; cell line SUM159PT,6.38
same,GI50,[1]; cell line SUM1315MO,6.21
same,GI50,[1]; cell line UACC812,4.66
same,GI50,[1]; cell line ZR75B,6.60
same,GI50,[1]; cell line ZR751,6.07
Oxamflatin,GI50,[1]; [3],6.19
same,GI50,[1]; [4],6.57
same,GI50,[1]; [5],6.15
same,GI50,[1]; [6],6.27
same,GI50,"[1]; HCC1143 cell line, censored GI50 values",6.28
same,GI50,[1]; [19],6.19
same,GI50,[1]; [8],5.64
same,GI50,[1]; [9],5.88
same,GI50,"[1]; HCC1428 cell line, censored GI50 values",6.33
same,GI50,[1]; [10],5.98
same,GI50,[1]; [11],6.16
same,GI50,[1]; [12],5.84
same,GI50,[1]; [13],5.81
same,GI50,[1]; cell line AU565,6.19
same,GI50,[1]; cell line BT474,6.57
same,GI50,[1]; cell line BT483,6.15
same,GI50,[1]; cell line CAMA1,6.27
same,GI50,[1]; cell line HCC38,6.77
same,GI50,[1]; cell line HCC70,6.35
same,GI50,[1]; cell line HCC1143,6.28
same,GI50,[1]; cell line HCC1187,6.19
same,GI50,[1]; cell line HCC1395,5.64
same,GI50,[1]; cell line HCC1419,5.88
same,GI50,[1]; cell line HCC1428,6.33
same,GI50,[1]; cell line HCC1500,5.98
same,GI50,[1]; cell line HCC1806,6.16
same,GI50,[1]; cell line HCC1937,5.84
same,GI50,[1]; cell line HCC1954,5.81
same,GI50,[1]; cell line HCC2185,6.46
same,GI50,[1]; cell line HCC3153,5.82
same,GI50,[1]; cell line LY2,5.88
same,GI50,[1]; cell line MDAMB134V,6.18
same,GI50,[1]; cell line MDAMB175V,5.41
same,GI50,[1]; cell line MDAMB361,6.15
same,GI50,[1]; cell line MDAMB415,6.14
same,GI50,[1]; cell line MDAMB453,6.56
same,GI50,[1]; cell line MDAMB468,5.57
same,GI50,[1]; cell line SKBR3,5.96
same,GI50,[1]; cell line SUM52PE,6.22
same,GI50,[1]; cell line SUM149PT,6.17
same,GI50,[1]; cell line SUM159PT,6.50
same,GI50,[1]; cell line SUM185PE,6.51
same,GI50,[1]; cell line SUM225CWN,6.07
same,GI50,[1]; cell line SUM1315MO,5.64
same,GI50,[1]; cell line T47D,6.06
same,GI50,[1]; cell line UACC812,5.71
same,GI50,[1]; cell line ZR75B,6.41
